{
  "source": "patent US20200278355A1",
  "about": "“CONJUGATED PROTEINS AND USES THEREOF” (THE SCRIPPS RESEARCH INSTITUTE, priority 2017, published 2020)",
  "format_in_all_cases": "cell-based",
  "key": {"TXNDC12": {"biological_target": "T1, TXNDC12 (Homo sapiens, UniProt O95881)", "T1 construct": "endogenous in cells; host or cells: H460", "T1 sequence (O95881 27-172)": "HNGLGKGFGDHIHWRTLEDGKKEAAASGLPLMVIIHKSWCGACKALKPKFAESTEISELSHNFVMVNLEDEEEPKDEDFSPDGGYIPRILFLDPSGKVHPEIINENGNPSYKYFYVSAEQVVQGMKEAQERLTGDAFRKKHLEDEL", "assay": "isoTOP-ABPP of compound-treated H460 cells: TXNDC12", "conditions": "TXNDC12 C66; 40 μM", "method": "(§1) For analysis of NR0B1 ligands or control compound reactivity, H460 cells or H460 cells expressing luciferase in a 10 cm plate were incubated with indicated compounds in serum/dye-free RPMI for 3 hours at 37° C. Cells were washed once ice-cold PBS and lysed in 1% Triton X-100 dissolved in PBS with protease inhibitors (Sigma) by sonication. Samples were clarified by centrifugation for 10 min at 16,000×g. Lysate was adjusted to 1.5 mg ml^−1 in 500 μL.\n(§2) Samples were labeled for 1 h at ambient temperature with 100 μM iodoacetamide alkyne (1, IA-alkyne, 5 μL of 10 mM stock in DMSO). Samples were conjugated by copper-catalyzed azide-alkyne cycloaddition (CuAAC) to isotopically labeled, TEV-cleavable tags (TEV-tags). Heavy CuAAC reaction mixtures was added to the DMSO-treated or shGFP control samples and light CuAAC reaction mixture was added to compound-treated or shNRF2 samples. The CuAAC reaction mixture consisted of TEV tags (light or heavy, 10 μL of 5 mM stocks in DMSO, final concentration=100 μM), 1 mM tris(2-carboxyethyl)phosphine hydrochloride (TCEP; fresh 50× stock in water, final concentration=1 mM), ligand (17× stock in DMSO:t-butanol 1:4, final concentration=100 μM) and 1 mM CuSO4 (50× stock in water, final concentration=1 mM). The samples were allowed to react for 1 h at which point the samples were centrifuged (16,000×g, 5 min, 4° C.). […]"}, "TXNRD1": {"biological_target": "T2, TXNRD1 (Homo sapiens, UniProt Q16881)", "T2 construct": "endogenous in cells; host or cells: H460", "T2 sequence (Q16881 whole entry)": "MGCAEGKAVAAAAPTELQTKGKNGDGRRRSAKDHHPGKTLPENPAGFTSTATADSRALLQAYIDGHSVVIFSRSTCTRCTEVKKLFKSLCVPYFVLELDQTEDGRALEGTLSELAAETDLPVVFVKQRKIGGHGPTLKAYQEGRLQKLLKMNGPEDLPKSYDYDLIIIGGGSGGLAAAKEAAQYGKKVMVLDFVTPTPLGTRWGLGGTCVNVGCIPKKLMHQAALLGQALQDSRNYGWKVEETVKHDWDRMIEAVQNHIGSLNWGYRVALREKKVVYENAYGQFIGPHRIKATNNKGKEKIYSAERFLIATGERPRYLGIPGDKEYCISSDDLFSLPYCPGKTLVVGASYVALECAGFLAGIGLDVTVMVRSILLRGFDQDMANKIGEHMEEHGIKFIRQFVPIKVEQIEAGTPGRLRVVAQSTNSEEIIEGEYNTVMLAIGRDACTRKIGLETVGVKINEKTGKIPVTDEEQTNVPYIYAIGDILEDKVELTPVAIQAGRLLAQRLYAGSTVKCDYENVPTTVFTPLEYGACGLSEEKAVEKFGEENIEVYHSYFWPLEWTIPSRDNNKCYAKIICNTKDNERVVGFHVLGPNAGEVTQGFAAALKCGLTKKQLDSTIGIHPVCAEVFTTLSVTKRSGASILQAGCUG", "assay": "isoTOP-ABPP of compound-treated H460 cells: TXNRD1", "conditions": "TXNRD1 U648; 40 μM", "method": "as §1, §2"}, "TXN": {"biological_target": "T3, TXN (Homo sapiens, UniProt P10599)", "T3 construct": "H460 cells or H460 cells expressing luciferase in a 10 cm plate were incubated with indicated compounds; endogenous in cells; host or cells: H460", "T3 sequence (P10599 whole entry)": "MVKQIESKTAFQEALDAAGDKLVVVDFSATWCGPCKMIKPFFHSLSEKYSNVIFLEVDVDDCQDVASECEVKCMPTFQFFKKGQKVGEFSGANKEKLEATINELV", "assay": "isoTOP-ABPP of compound-treated H460 cells: TXN", "conditions": "TXN C35; 40 μM", "method": "as §1, §2"}},
  "data": [
    {"smiles": "O=C(c1ccc(N2CCOCC2)cc1)N1CCCC(N(Cc2ccccc2)C(=O)CCl)CC1", "note": "(stereo not drawn) [BPK-29, N-benzyl-2-chloro-N-(1-(4-morpholinobenzoyl)azepan-4-yl)acetamide]", "values": [
      {"measurement": "BPK-29-competed isoTOP-ABPP analysis", "setting": "TXNDC12", "value": "Yes (Competed defined as showing R value ≥ 3.0 at 40 μM of test compound)"},
      {"measurement": "BPK-29-competed isoTOP-ABPP analysis", "setting": "TXNRD1", "value": "Yes (Competed defined as showing R value ≥ 3.0 at 40 μM of test compound)"},
      {"measurement": "BPK-29-competed isoTOP-ABPP analysis", "setting": "TXN", "value": "Yes (Competed defined as showing R value ≥ 3.0 at 40 μM of test compound)"}
    ]}
  ]
}
